Here are results for one molecule from patent publication US12227500B2, “Substituted pyrrolo[2,3-b]pyridines for suppressing toxic endoplasmic reticulum stress” (THE TRUSTEES OF COLUMBIA UNIVERSITY IN THE CITY OF NEW YORK, priority 2018, dated 2025).

Entries after “also recorded” stand apart in the source; their conditions may differ. Some results are limits rather than exact numbers.

Test [1] deals with human stem cell-derived motor neurons derived from a healthy patient. Briefly: CPA survival assay, wild-type human stem cell-derived motor neurons. Conditions: CPA 33 μM; at 1.2 μM (PF-6260933), 2.4 μM (GNE-495), 0.6 μM (URMC-099).
Test [2] relates to mouse ES-derived motor neurons. Briefly: Western blot of JNK pathway activation in CPA-treated motor neurons. It is filed as cell-based. Conditions: 4 h. The protocol:
Mouse ES-derived motor neurons were treated with CPA, CPA+ compound 1, or vehicle control (DMSO) for four hours. Cells were then lysed to extract proteins.
Samples were harvested after 4 h of treatment. N=samples from 3 separate motor neuron differentiations treated and lysed separately. Cells from each differentiation were split into three samples, one for each treatment condition. All samples were run concurrently on the same blot. All band intensities were normalized to GAPDH to control for loading, then DMSO and CPA+Compound 1 values were normalized to CPA values for each n. One-way ANOVAs were used to evaluate the overall effects of treatment on JNK phosphorylation (P=0.0009; F=28.33; R2=0.9042) and c-Jun phosphorylation (P<0.0001; F=101.9; R2=0.9714).
Whole mouse embryoid bodies at day 6 of differentiation were treated with CPA (10 μM) and test compounds for 4 h, then lysed and sonicated in ice-cold buffer containing HEPES (50 mM), NaCl (100 mM), Triton-X (1%), SDS (0.1%), DTT (1 mM), EDTA (1 mM), plus protease and phosphatase inhibitor cocktail tablets (Roche). Total protein content was analyzed using a BCA kit according to the manufacturer's instructions (Pierce). […] Samples were run for 4 h at 100V at 4°, then transferred to nitrocellulose membranes using an iBlot dry transfer system (Thermo Fisher). Membranes were blocked with tris-buffered saline (TBS) containing 5% BSA (Cell Signaling Technologies), then incubated with primary antibodies in a buffer containing 5% BSA and 0.1% Tween in TBS overnight at 4°. Primary antibodies against phospho-c-Jun (serine 63; Cell Signaling Technologies #9261) were added at 1:500; primary antibodies against phospho-JNK (thr183/tyr185; Cell Signaling Technologies #4688) were added at 1:1000; primary antibodies against GAPDH (Santa Cruz Biotechnologies) were added at 1:1000 as a loading control. Following washes in TBS containing 0.1% Tween, membranes were incubated in goat anti-rabbit HRP-conjugated secondary antibody solutions (1:10,000; Santa Cruz Biotechnologies) for 1 hr. Membranes were then washed again in TBS containing 0.1% Tween, then incubated in Femto ECL (Pierce) for 5 min. Chemiluminescence was visualized using a LiCor Odyssey. Phospho-c-Jun and phopsho-JNK band intensities were normalized to GAPDH.

In a further test the target is HGK/MAP4K4 (Homo sapiens, UniProt O95819). The conditions noted are these: cited from earlier work.
Chain of HGK/MAP4K4 (O95819 whole entry, species assumed): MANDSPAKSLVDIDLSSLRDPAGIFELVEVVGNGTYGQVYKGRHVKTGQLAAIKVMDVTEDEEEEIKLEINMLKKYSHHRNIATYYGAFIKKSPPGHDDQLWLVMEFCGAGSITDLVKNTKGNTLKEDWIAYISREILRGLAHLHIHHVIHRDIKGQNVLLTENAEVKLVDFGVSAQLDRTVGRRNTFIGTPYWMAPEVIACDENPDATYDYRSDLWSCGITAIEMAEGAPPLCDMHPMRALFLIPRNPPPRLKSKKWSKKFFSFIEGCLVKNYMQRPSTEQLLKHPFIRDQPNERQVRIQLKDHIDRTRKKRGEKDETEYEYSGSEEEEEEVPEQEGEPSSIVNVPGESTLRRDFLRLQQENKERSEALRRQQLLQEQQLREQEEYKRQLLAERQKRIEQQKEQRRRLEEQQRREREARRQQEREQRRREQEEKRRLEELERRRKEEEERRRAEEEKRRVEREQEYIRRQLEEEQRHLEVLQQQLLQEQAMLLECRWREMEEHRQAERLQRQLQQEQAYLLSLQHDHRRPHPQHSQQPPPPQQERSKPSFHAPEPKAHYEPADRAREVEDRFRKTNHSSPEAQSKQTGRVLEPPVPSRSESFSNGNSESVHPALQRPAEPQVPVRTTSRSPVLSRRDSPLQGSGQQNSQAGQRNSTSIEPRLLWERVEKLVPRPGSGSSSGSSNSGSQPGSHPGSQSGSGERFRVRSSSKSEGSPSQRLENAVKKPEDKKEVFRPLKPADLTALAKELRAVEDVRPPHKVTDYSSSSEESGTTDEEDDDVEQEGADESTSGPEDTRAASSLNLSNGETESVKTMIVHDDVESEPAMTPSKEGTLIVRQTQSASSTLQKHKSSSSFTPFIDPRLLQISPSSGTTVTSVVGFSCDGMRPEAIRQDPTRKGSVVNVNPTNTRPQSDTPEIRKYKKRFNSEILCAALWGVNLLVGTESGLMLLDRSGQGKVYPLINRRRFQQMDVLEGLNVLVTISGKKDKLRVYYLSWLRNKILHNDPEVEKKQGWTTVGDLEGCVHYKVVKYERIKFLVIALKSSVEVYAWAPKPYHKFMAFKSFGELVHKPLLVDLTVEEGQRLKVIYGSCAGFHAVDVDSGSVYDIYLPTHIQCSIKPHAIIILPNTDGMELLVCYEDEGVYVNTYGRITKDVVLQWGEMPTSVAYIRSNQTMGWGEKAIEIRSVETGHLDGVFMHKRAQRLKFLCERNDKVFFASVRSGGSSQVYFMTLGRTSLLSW

For `CN1CCN(Cc2ccc(-c3cnc4[nH]cc(-c5ccc6[nH]ccc6c5)c4c3)cc2)CC1` [Compound 1, 3-(1H-Indol-5-yl)-5-(4-((4-methylpiperazin-1-yl)methyl)phenyl)-1H-pyrrolo[2,3-b]pyridine, reference compound], in test [1], the “motor neuron survival restored, % of vehicle controls (maximum)” value stood at 90%. In test [2], the “JNK phosphorylation in CPA-treated motor neurons” value is “strongly attenuated; also recorded: significantly decreased JNK phosphorylation”, the “MKK4 phosphorylation in CPA-treated MNs” value is “strongly attenuated”, the “c-Jun phosphorylation in CPA-treated motor neurons” value was “strongly suppressed; also recorded: below the threshold of detection” and the “caspase 3 cleavage in CPA-treated MNs” value is reported as “strongly suppressed”. Besides, the “HGK enzyme activity remaining” value on HGK/MAP4K4 (1 μM treatment) is 0.54%. In addition, the “inhibition of HGK activity in a cell-free assay” value on HGK/MAP4K4 (1 μM, Goodfellow et al. 2013) is greater than 99%.
